Among the data in patent US20260070945A1, “MACROCYCLIC IMMUNOMODULATORS” (Bristol-Myers Squibb Company, priority 2022, published 2026) are IC50 values, retold here.

Where a SMILES comes first, the peptide text is derived from it. Bridges are numbered along the chain shown (N, C = ends). [ ]: non-standard residue; d: D form. The star is where a group is joined. ξ: configuration not given here. Phe(4-COOH) = N[C@@H](Cc1ccc(C(=O)O)cc1)C(=O)O; Bip = N[C@@H](Cc1ccc(-c2ccccc2)cc1)C(=O)O; Phe(3-F) = N[C@@H](Cc1cccc(F)c1)C(=O)O; Phe(3-Me) = Cc1cccc(C[C@H](N)C(=O)O)c1; Val(3-OH) = CC(C)(O)[C@H](N)C(=O)O; Cha = N[C@@H](CC1CCCCC1)C(=O)O; Carboxymethyl = O=C(O)C*; NMeA = CN[C@@H](C)C(=O)O; Aun = NCCCCCCCCCCC(=O)O; Dab = NCC[C@H](N)C(=O)O; AEEA = NCCOCCOCC(=O)O; ξDab = NCCC(N)C(=O)O

T1 sequence (Q15116 25-288): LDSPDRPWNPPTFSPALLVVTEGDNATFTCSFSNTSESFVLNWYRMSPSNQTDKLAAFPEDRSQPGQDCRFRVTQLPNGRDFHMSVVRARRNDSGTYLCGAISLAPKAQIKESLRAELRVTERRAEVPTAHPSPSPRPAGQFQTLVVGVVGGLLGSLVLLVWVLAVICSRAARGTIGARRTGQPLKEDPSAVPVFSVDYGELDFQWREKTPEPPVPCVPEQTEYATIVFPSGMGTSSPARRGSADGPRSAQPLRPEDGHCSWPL

This test addresses T1, PD-1/PD-L1 interaction (PE-labeled human PD-L1-Ig binding to Jurkat cell line over-expressing human PD-1) (Homo sapiens, UniProt Q15116).
T1 construct: expressed in transfected cells; host or cells: Jurkat
Put plainly: Jurkat-PD-1 Cell Binding High-Content Screening Assay (CBA). The settings on record: Jurkat-hPD-1 cells, PE-labeled PD-L1-Ig 20 nM final; read-out: Jurkat HPD1 PDL1 IC50. In short, it runs like this:
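In this imaging assay, cells in 10% FCS medium see compound for 2 h at 37 °C and then labeled ligand at 20 nM final for 1 h. Paraformaldehyde fixation, Hoechst 33342 staining and dPBS washes precede image capture.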
On to `Cc1cccc(C[C@@H]2NC(=O)[C@H](CC(=O)O)NC(=O)[C@H](Cc3ccc(OCC(=O)O)cc3)NC(=O)[C@H]([C@@H](C)O)NC(=O)CSC[C@@H](C(=O)N[C@H](C)C(=O)NCCOCCOCC(=O)NCCCCCCCCCCC(=O)O)NC(=O)[C@H](CCC(=O)O)NC(=O)[C@H](C(C)(C)O)NC(=O)[C@H](CC3CCCCC3)NC(=O)[C@H](CCN)NC(=O)[C@@H](CC(C)C)NC(=O)[C@H](C)N(C)C(=O)[C@H](Cc3ccc(OCC(=O)O)cc3)NC(=O)[C@H](Cc3ccc(-c4ccccc4)cc3)NC(=O)[C@H](Cc3ccc(OCC(=O)O)cc3)NC2=O)c1` [Example 1417] ({CH2CO}-TY(Carboxymethyl)D[Phe(3-Me)]Y(Carboxymethyl)[Bip]Y(Carboxymethyl)[NMeA][dL][Dab][Cha][Val(3-OH)]EC[dA][AEEA][Aun]-OH; thioether N-14), for which the 50% inhibitory concentration (IC50) worked out at 0.379 µM. As for `Cc1cccc(C[C@@H]2NC(=O)[C@H](CC(=O)O)NC(=O)[C@H](Cc3ccc(OCC(=O)O)cc3)NC(=O)[C@H]([C@@H](C)O)NC(=O)CSC[C@@H](C(=O)N[C@@H](CCN)C(=O)NCCCCCCCCCCC(=O)O)NC(=O)[C@H](CCC(=O)O)NC(=O)[C@H](C(C)(C)O)NC(=O)[C@H](CC3CCCCC3)NC(=O)[C@H](CCN)NC(=O)[C@@H](CC(C)C)NC(=O)[C@H](C)N(C)C(=O)[C@H](Cc3ccc(OCC(=O)O)cc3)NC(=O)[C@H](Cc3ccc(-c4ccccc4)cc3)NC(=O)[C@H](Cc3ccc(OCC(=O)O)cc3)NC2=O)c1` [Example 1418] ({CH2CO}-TY(Carboxymethyl)D[Phe(3-Me)]Y(Carboxymethyl)[Bip]Y(Carboxymethyl)[NMeA][dL][Dab][Cha][Val(3-OH)]EC[Dab][Aun]-OH; thioether N-14), the half-maximal inhibitory concentration (IC50) worked out at 0.0371 µM.

Take `Cc1cccc(C[C@@H]2NC(=O)[C@H](CC(=O)O)NC(=O)[C@H](Cc3ccc(OCC(=O)O)cc3)NC(=O)[C@H]([C@@H](C)O)NC(=O)CSC[C@@H](C(=O)N[C@@H](CC(N)=O)C(=O)NCCCCCCCCCCC(=O)O)NC(=O)[C@H](CCC(=O)O)NC(=O)[C@H](C(C)(C)O)NC(=O)[C@H](CC3CCCCC3)NC(=O)[C@H](CCN)NC(=O)[C@@H](CC(C)C)NC(=O)[C@H](C)N(C)C(=O)[C@H](Cc3ccc(OCC(=O)O)cc3)NC(=O)[C@H](Cc3ccc(-c4ccccc4)cc3)NC(=O)[C@H](Cc3ccc(OCC(=O)O)cc3)NC2=O)c1` [Example 1419] ({CH2CO}-TY(Carboxymethyl)D[Phe(3-Me)]Y(Carboxymethyl)[Bip]Y(Carboxymethyl)[NMeA][dL][Dab][Cha][Val(3-OH)]ECN[Aun]-OH; thioether N-14): the IC50 was 0.186 µM. `Cc1cccc(C[C@@H]2NC(=O)[C@H](CC(=O)O)NC(=O)[C@H](Cc3ccc(OCC(=O)O)cc3)NC(=O)[C@H]([C@@H](C)O)NC(=O)CSC[C@@H](C(=O)N[C@H](CC(N)=O)C(=O)NCCCCCCCCCCC(=O)O)NC(=O)[C@H](CCC(=O)O)NC(=O)[C@H](C(C)(C)O)NC(=O)[C@H](CC3CCCCC3)NC(=O)[C@H](CCN)NC(=O)[C@@H](CC(C)C)NC(=O)[C@H](C)N(C)C(=O)[C@H](Cc3ccc(OCC(=O)O)cc3)NC(=O)[C@H](Cc3ccc(-c4ccccc4)cc3)NC(=O)[C@H](Cc3ccc(OCC(=O)O)cc3)NC2=O)c1` [Example 1420] ({CH2CO}-TY(Carboxymethyl)D[Phe(3-Me)]Y(Carboxymethyl)[Bip]Y(Carboxymethyl)[NMeA][dL][Dab][Cha][Val(3-OH)]EC[dN][Aun]-OH; thioether N-14): the IC50 was determined as 0.116 µM.

For the molecule `Cc1cccc(C[C@@H]2NC(=O)[C@H](CC(=O)O)NC(=O)[C@H](Cc3ccc(OCC(=O)O)cc3)NC(=O)[C@H]([C@@H](C)O)NC(=O)CSC[C@@H](C(=O)N[C@H](C)C(=O)NCCCCCCCCCCC(=O)O)NC(=O)[C@H](CCC(=O)O)NC(=O)[C@H](C(C)(C)O)NC(=O)[C@H](CC3CCCCC3)NC(=O)[C@H](CCN)NC(=O)[C@@H](CC(C)C)NC(=O)[C@H](C)N(C)C(=O)[C@H](Cc3ccc(OCC(=O)O)cc3)NC(=O)[C@H](Cc3ccc(-c4ccccc4)cc3)NC(=O)[C@H](Cc3ccc(OCC(=O)O)cc3)NC2=O)c1` [Example 1421] ({CH2CO}-TY(Carboxymethyl)D[Phe(3-Me)]Y(Carboxymethyl)[Bip]Y(Carboxymethyl)[NMeA][dL][Dab][Cha][Val(3-OH)]EC[dA][Aun]-OH; thioether N-14), the IC50 worked out at 0.24 µM.

In the case of `Cc1cccc(C[C@@H]2NC(=O)[C@H](CC(=O)O)NC(=O)[C@H](Cc3ccc(OCC(=O)O)cc3)NC(=O)[C@H]([C@@H](C)O)NC(=O)CSC[C@@H](C(=O)N[C@@H](CCN)C(=O)NCCCCCCCCCCC(=O)O)NC(=O)[C@H](CCC(=O)O)NC(=O)[C@H](C(C)C)NC(=O)[C@H](CC3CCCCC3)NC(=O)[C@H](CCN)NC(=O)[C@@H](CC(C)C)NC(=O)[C@H](C)N(C)C(=O)[C@H](Cc3ccc(OCC(=O)O)cc3)NC(=O)[C@H](Cc3ccc(-c4ccccc4)cc3)NC(=O)[C@H](Cc3ccc(OCC(=O)O)cc3)NC2=O)c1` [Example 1422] ({CH2CO}-TY(Carboxymethyl)D[Phe(3-Me)]Y(Carboxymethyl)[Bip]Y(Carboxymethyl)[NMeA][dL][Dab][Cha]VEC[Dab][Aun]-OH; thioether N-14), the concentration for half-maximal inhibition (IC50) turned out to be 0.0202 µM. As to `Cc1cccc(C[C@@H]2NC(=O)[C@H](CC(=O)O)NC(=O)[C@H](Cc3ccc(OCC(=O)O)cc3)NC(=O)[C@H]([C@@H](C)O)NC(=O)CSC[C@@H](C(=O)NC(CCN)C(=O)NCCOCCOCC(=O)NCCCCCCCCCCC(=O)O)NC(=O)[C@H](CCC(=O)O)NC(=O)[C@H](C(C)(C)O)NC(=O)[C@H](CC3CCCCC3)NC(=O)[C@H](CCN)NC(=O)[C@@H](CC(C)C)NC(=O)[C@H](C)N(C)C(=O)[C@H](Cc3ccc(OCC(=O)O)cc3)NC(=O)[C@H](Cc3ccc(-c4ccccc4)cc3)NC(=O)[C@H](Cc3ccc(C(=O)O)cc3)NC2=O)c1` (stereo partly drawn) [Example 1423] ({CH2CO}-TY(Carboxymethyl)D[Phe(3-Me)][Phe(4-COOH)][Bip]Y(Carboxymethyl)[NMeA][dL][Dab][Cha][Val(3-OH)]EC[ξDab][AEEA][Aun]-OH; thioether N-14), the 50% inhibitory concentration (IC50) worked out at 0.0281 µM. Take `Cc1cccc(C[C@@H]2NC(=O)[C@H](CC(=O)O)NC(=O)[C@H](Cc3ccc(OCC(=O)O)cc3)NC(=O)[C@H]([C@@H](C)O)NC(=O)CSC[C@@H](C(=O)N[C@@H](CCN)C(=O)NCCOCCOCC(=O)NCCCCCCCCCCC(=O)O)NC(=O)[C@H](CCC(=O)O)NC(=O)[C@H](C(C)(C)O)NC(=O)[C@H](CC3CCCCC3)NC(=O)[C@H](CCN)NC(=O)[C@@H](CC(C)C)NC(=O)[C@H](C)N(C)C(=O)[C@H](Cc3ccc(OCC(=O)O)cc3)NC(=O)[C@H](Cc3ccc(-c4ccccc4)cc3)NC(=O)[C@H](Cc3cccc(F)c3)NC2=O)c1` [Example 1424] ({CH2CO}-TY(Carboxymethyl)D[Phe(3-Me)][Phe(3-F)][Bip]Y(Carboxymethyl)[NMeA][dL][Dab][Cha][Val(3-OH)]EC[Dab][AEEA][Aun]-OH; thioether N-14): the IC50 worked out at 0.0277 µM.

The IC50 is the concentration at which inhibition is half-maximal.
